Among the data in PubChem BioAssay (NCI) are GI50 and TGI values, retold here.

Values joined by “and” are separate entries in the source; they are usually repeats but may differ in a detail not shown here. Equal entries are not always repeated.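 Values below derive from 48-hour exposures of cells grown in 96-well plates, with endpoints linearly interpolated between the two concentrations bracketing the appropriate inhibition level. At the GI50, growth is halved. TGI: total growth inhibition.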

Test systems include MDA-MB-231 breast; KM12 colon; SK-MEL-2 melanoma; EKVX NSCLC; SNB-75 CNS; SF-539 CNS; DU-145 prostate; MALME-3M melanoma; NCI-H23 lung; OVCAR-3 ovarian.
Holding throughout (test): inhibition of tumour cell growth, NCI panel, 48 h

In the case of `Nc1nc2ccc3[nH]ncc3c2c2c1CCCC2`, the GI50 was 2.74 µM in the assay on MDA-MB-231 breast; 2.82 µM in the assay with KM12 colon; 2.12 µM in the assay on SK-MEL-2 melanoma; 1.54 µM in the assay on EKVX NSCLC; 1.36 µM in the assay with SNB-75 CNS; 1.51 µM with SF-539 CNS. Also, the GI50 is 2.4 µM with DU-145 prostate, 2.36 µM in the assay with MALME-3M melanoma, 1.41 µM with NCI-H23 lung and 2.78 µM with OVCAR-3 ovarian. Further, the TGI in the assay on MDA-MB-231 breast was determined as 8.45 µM; in the assay on KM12 colon, 11.6 µM; in the assay on SK-MEL-2 melanoma it was 5.35 µM; in the assay with EKVX NSCLC it was 5.38 µM; in the assay with SNB-75 CNS, 2.71 µM; with SF-539 CNS, 3.18 µM. For the same molecule, the TGI turned out to be 10.7 µM in the assay with DU-145 prostate, 5.13 µM with MALME-3M melanoma, 3.12 µM in the assay on NCI-H23 lung and 9.87 µM in the assay on OVCAR-3 ovarian.

With `O=C(O)c1ccc([S-])cc1.[Au+].c1ccc(CN2[CH-]N(Cc3ccccc3)C(c3ccccc3)=C2c2ccccc2)cc1`, the GI50 is 0.304 µM with MDA-MB-231 breast; 0.513 µM in the assay on KM12 colon; 0.346 µM in the assay with SK-MEL-2 melanoma; 0.274 µM with EKVX NSCLC; 0.298 µM in the assay with SNB-75 CNS; 0.505 µM in the assay on SF-539 CNS. The GI50 was 0.526 µM in the assay with DU-145 prostate, 0.249 µM in the assay with MALME-3M melanoma, 0.314 µM in the assay on NCI-H23 lung and 0.373 µM in the assay with OVCAR-3 ovarian. Also, the TGI in the assay on MDA-MB-231 breast came to 1.18 µM; in the assay on KM12 colon it was 1.82 µM; with SK-MEL-2 melanoma, 1.21 µM; in the assay on EKVX NSCLC it was 1.53 µM; in the assay on SNB-75 CNS, 1.51 µM; in the assay with SF-539 CNS, 1.78 µM. The TGI is 1.74 µM with DU-145 prostate, 0.797 µM in the assay with MALME-3M melanoma, 1.21 µM with NCI-H23 lung and 1.28 µM in the assay on OVCAR-3 ovarian.

As for `N#C/C(=C\Nc1ccccn1)C(=O)c1ccco1`, the TGI with MDA-MB-231 breast, in the assay with KM12 colon, in the assay with SK-MEL-2 melanoma, in the assay on EKVX NSCLC, in the assay on SNB-75 CNS and in the assay with SF-539 CNS was above 100 µM throughout. The TGI with DU-145 prostate, in the assay on MALME-3M melanoma, with NCI-H23 lung and in the assay on OVCAR-3 ovarian was above 100 µM each time.

In the case of `Cc1cc(Oc2cnc(=O)[nH]c2)cs1`, the TGI in the assay with MDA-MB-231 breast, in the assay on KM12 colon, in the assay with SK-MEL-2 melanoma, in the assay with EKVX NSCLC, in the assay with SNB-75 CNS and in the assay on SF-539 CNS was above 100 µM in each case. In addition, the TGI in the assay with DU-145 prostate, with MALME-3M melanoma, in the assay with NCI-H23 lung and in the assay with OVCAR-3 ovarian was above 100 µM each time.

In the case of `CN1CCC(C(=O)Nc2n[nH]c3nc(-c4ccc(O)cc4)c(Br)cc23)CC1`, the GI50 is 1.4 µM and 3.97 µM in the assay with MDA-MB-231 breast; 1.82 µM and 1.49 µM with KM12 colon; 0.692 µM and 1.66 µM in the assay on SK-MEL-2 melanoma; 6.62 µM and 2.51 µM with EKVX NSCLC; 0.207 µM and 0.537 µM in the assay on SNB-75 CNS; 0.647 µM and 0.946 µM in the assay with SF-539 CNS. Moreover, the GI50 in the assay on DU-145 prostate is 1.69 µM and 1.18 µM; with MALME-3M melanoma, 3.56 µM and 4.97 µM; with NCI-H23 lung it was 4.19 µM and 6.88 µM; in the assay on OVCAR-3 ovarian, 0.815 µM and 0.504 µM. Moreover, the TGI was 11.3 µM and 16 µM with MDA-MB-231 breast; above 25 µM in the assay with KM12 colon; 2.32 µM and 5.75 µM in the assay with SK-MEL-2 melanoma; above 25 µM with EKVX NSCLC; 8.38 µM and 7.52 µM in the assay with SNB-75 CNS; 3.23 µM and 8.15 µM in the assay on SF-539 CNS. For the same molecule, the TGI was above 25 µM in the assay on DU-145 prostate; 11.1 µM and 11.7 µM with MALME-3M melanoma; 16.1 µM and > 25 µM in the assay with NCI-H23 lung; > 11.6 µM and 1.44 µM with OVCAR-3 ovarian.

Turning to `CN1C(=O)C(=Cc2cn(Cc3ccccc3)c3ccccc23)C(=O)N(C)C1=O`, the GI50 was 54.1 µM with MDA-MB-231 breast; 52.4 µM in the assay with KM12 colon; 35.8 µM in the assay on EKVX NSCLC; 34.2 µM with SNB-75 CNS; 47.3 µM with SF-539 CNS; 87.2 µM in the assay on DU-145 prostate. Further, the GI50 is 42.1 µM in the assay on MALME-3M melanoma, 44.2 µM with NCI-H23 lung and 20.8 µM in the assay on OVCAR-3 ovarian. In addition, the TGI was above 100 µM in the assay on MDA-MB-231 breast; above 100 µM in the assay with KM12 colon; above 67.6 µM in the assay with SK-MEL-2 melanoma; above 100 µM in the assay on EKVX NSCLC; above 100 µM with SNB-75 CNS; above 100 µM in the assay with SF-539 CNS. Besides, the TGI in the assay on DU-145 prostate, with MALME-3M melanoma, in the assay with NCI-H23 lung and in the assay with OVCAR-3 ovarian was above 100 µM in each case.

Regarding `COc1ccc(-c2cn(-c3cccc(C(=O)/C=C/c4ccc(O)c(OC)c4)c3)c(=O)[nH]2)cc1`, the GI50 with MDA-MB-231 breast is 4.06 µM; in the assay on KM12 colon it was 1.7 µM; with SK-MEL-2 melanoma, 4.72 µM; with EKVX NSCLC it was 8.4 µM; with SNB-75 CNS, 4.75 µM; with SF-539 CNS it was 2.12 µM. In addition, the GI50 was 3.02 µM in the assay on DU-145 prostate, 3.98 µM in the assay with MALME-3M melanoma, 3.57 µM in the assay with NCI-H23 lung and 2.48 µM in the assay on OVCAR-3 ovarian. The TGI was above 54.3 µM with MDA-MB-231 breast; 3.57 µM with KM12 colon; above 58.1 µM in the assay on SK-MEL-2 melanoma; above 100 µM in the assay on EKVX NSCLC; above 80.2 µM in the assay with SNB-75 CNS; 5.53 µM in the assay with SF-539 CNS. For the same molecule, the TGI with DU-145 prostate worked out at 9.27 µM; in the assay with MALME-3M melanoma, 24.4 µM; in the assay with NCI-H23 lung, 25.2 µM; with OVCAR-3 ovarian, 7.37 µM.

With `Cc1ccc(C(=O)N2CCN(C(=O)c3ccc(C)cc3)c3ccccc32)cc1`, the TGI was above 100 µM in the assay on MDA-MB-231 breast; above 100 µM with KM12 colon; above 39.6 µM with SK-MEL-2 melanoma; above 100 µM in the assay on EKVX NSCLC; above 100 µM in the assay on SNB-75 CNS; 11.9 µM in the assay on SF-539 CNS. In addition, the TGI was above 100 µM with DU-145 prostate, above 100 µM in the assay on MALME-3M melanoma, above 100 µM in the assay on NCI-H23 lung and 10.6 µM in the assay with OVCAR-3 ovarian.

In the case of `COc1cc(-c2csc(NC(=O)Nc3cc(C(F)(F)F)cc(C(F)(F)F)c3)n2)cc(OC)c1OC`, the GI50 with MDA-MB-231 breast was 1.59 µM; in the assay on KM12 colon, 2.49 µM; in the assay on SK-MEL-2 melanoma it was 1.66 µM; in the assay on EKVX NSCLC, 2.38 µM; in the assay with SNB-75 CNS, 2.27 µM; with SF-539 CNS, 2.28 µM. The GI50 with DU-145 prostate is 3.6 µM; in the assay on MALME-3M melanoma it was 2.15 µM; in the assay with NCI-H23 lung, 2.38 µM; with OVCAR-3 ovarian it was 2.39 µM. Besides, the TGI came out at 3.92 µM with MDA-MB-231 breast; 11.8 µM in the assay on KM12 colon; 5.85 µM in the assay with SK-MEL-2 melanoma; 13.9 µM with EKVX NSCLC; 10.6 µM in the assay on SNB-75 CNS; 6.75 µM in the assay on SF-539 CNS. The TGI in the assay with DU-145 prostate was found to be 18.3 µM; with MALME-3M melanoma it was 7.32 µM; with NCI-H23 lung, 13.2 µM; with OVCAR-3 ovarian it was 10.6 µM.
